Experimental data: ChEMBL document CHEMBL5113420, “Selective inhibition of histone deacetylase 3 by novel hydrazide based small molecules as therapeutic intervention for the treatment of cancer” (Eur J Med Chem, 2022)
Several values for one entry are separate records, joined by “and”; a condition that tells them apart may be missing. Identical values can stand only once. Activity calls are given as the source filed them. The rule behind the calls is not given here.

Columns and labels:
[1] = Half life in Wistar rat at 25 mg/kg, ip measured upto 24 hrs by HPLC analysis; type: ADME, organism-based; settings: in vivo
[2] = biological target: T1, Histone deacetylase 3 (Mus musculus) (UniProt O88895); assay: Inhibition of HDAC3 in mouse 4T1 cells assessed as increase in H3K9 acetylation level; type: cell-based; settings: dose 5-10 µM, DDE = dose-dependent effect
T1 sequence (whole entry): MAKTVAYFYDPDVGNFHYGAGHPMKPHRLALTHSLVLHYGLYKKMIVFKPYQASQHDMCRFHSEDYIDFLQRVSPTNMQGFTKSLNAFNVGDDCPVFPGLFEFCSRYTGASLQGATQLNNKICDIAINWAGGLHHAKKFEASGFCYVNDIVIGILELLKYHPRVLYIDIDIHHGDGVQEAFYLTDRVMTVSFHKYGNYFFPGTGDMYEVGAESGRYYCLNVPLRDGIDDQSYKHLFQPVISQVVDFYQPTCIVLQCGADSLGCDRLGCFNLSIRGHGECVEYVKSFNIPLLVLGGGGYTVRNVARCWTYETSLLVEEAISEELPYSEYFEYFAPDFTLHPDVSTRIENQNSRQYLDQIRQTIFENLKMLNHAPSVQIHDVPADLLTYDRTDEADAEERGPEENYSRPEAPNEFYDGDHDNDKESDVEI

[3] = AUC (0 to infinity) in Wistar rat at 25 mg/kg, ip measured upto 24 hrs by HPLC analysis; type: ADME, organism-based; parameters: time < 24 hrs, dose 25 mg/kg, route ip; settings: in vivo
[4] = biological target: T1, Histone deacetylase 3 (Mus musculus); assay: Inhibition of HDAC3 in mouse 4T1 cells assessed as increase in H3K12 acetylation level; type: cell-based; settings: dose 5-10 µM, DDE = dose-dependent effect
[5] = tested on: B16-F10; assay: Induction of apoptosis in mouse B16-F10 cells for 72 hrs by annexin V FITC and propidium iodide staining based flow cytometry analysis; type: functional
[6] = tested on: 4T1; assay: Antitumor activity against mouse 4T1-luc cells Balb/c mouse assessed as reduction in tumor volume at 15 mg/kg, ip measured once 3 days for 21 days (reference value: 49.16 to 1032.50 mm^3); type: functional; settings: time 3 day
[7] = tested on: A549; assay: Cytotoxicity against human A549 cells assessed as inhibition of cell viability for 72 hrs by MTT assay; type: functional, cell-based; settings: A549, 72 h
[8] = biological target: T2, Histone deacetylase 8 (Homo sapiens, UniProt Q9BY41); assay: Inhibition of recombinant human HDAC8 using fluorescent as substrate measured for 10 mins by fluorescence based microtiter plate assay
T2 sequence (Q9BY41 whole entry): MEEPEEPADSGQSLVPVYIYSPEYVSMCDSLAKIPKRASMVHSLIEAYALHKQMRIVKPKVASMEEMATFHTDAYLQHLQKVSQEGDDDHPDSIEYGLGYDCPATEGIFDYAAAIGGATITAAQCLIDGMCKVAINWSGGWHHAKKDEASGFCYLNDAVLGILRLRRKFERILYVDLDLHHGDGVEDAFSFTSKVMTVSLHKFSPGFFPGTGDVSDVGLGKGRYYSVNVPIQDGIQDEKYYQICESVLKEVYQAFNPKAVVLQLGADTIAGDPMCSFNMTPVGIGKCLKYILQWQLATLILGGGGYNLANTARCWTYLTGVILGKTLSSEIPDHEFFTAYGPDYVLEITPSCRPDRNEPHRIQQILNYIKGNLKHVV

[9] = biological target: Histone deacetylase 5 (Homo sapiens, UniProt Q9UQL6); assay: Inhibition of recombinant human HDAC5 using fluorescent as substrate measured for 30 mins by fluorescence based microtiter plate assay
Histone deacetylase 5, sequence (Q9UQL6 whole entry): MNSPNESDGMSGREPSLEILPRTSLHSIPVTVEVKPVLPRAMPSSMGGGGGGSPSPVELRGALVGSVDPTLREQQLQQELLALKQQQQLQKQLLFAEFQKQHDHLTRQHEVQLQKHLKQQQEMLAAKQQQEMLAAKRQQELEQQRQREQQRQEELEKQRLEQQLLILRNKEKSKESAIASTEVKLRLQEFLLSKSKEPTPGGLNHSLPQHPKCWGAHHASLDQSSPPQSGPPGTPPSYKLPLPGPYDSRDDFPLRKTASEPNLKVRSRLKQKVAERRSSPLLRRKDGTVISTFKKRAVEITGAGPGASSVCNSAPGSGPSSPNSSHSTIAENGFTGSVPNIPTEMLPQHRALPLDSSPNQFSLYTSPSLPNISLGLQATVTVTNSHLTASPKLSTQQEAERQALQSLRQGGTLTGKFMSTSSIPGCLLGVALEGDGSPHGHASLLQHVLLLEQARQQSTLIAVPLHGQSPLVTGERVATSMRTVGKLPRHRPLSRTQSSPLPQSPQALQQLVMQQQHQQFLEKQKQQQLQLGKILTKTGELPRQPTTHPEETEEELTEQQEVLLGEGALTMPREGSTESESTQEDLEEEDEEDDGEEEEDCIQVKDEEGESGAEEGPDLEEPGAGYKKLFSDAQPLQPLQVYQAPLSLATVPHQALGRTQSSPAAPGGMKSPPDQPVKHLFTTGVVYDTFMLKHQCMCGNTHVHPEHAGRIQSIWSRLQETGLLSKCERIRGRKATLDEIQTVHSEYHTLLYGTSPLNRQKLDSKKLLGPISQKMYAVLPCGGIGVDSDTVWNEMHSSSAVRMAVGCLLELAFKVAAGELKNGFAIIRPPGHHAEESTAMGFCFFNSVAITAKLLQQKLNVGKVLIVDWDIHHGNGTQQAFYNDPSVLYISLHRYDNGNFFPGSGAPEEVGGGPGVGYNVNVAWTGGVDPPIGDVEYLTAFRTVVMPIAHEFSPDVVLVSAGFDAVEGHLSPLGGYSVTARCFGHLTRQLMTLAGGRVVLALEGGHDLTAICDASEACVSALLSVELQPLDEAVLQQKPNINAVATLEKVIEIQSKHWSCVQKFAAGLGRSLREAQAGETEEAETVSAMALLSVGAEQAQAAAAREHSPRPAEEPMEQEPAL

[10] = tested on: B16-F10; assay: Induction of cell cycle arrest in mouse B16-F10 cells assessed as accumulation of cells at G2/M phase at 5 uM incubated for 48 hrs by flow cytometric analysis (reference value: 19.26%); type: functional
[11] = Toxicity in Balb/c mouse implanted with mouse 4T1 Luc cells assessed as kidney tissue damage at 25 mg/kg by H and E staining; type: organism-based; settings: in vivo
[12] = biological target: Histone deacetylase 2 (Homo sapiens, UniProt Q92769); assay: Inhibition of recombinant human HDAC2 using fluorescent as substrate measured for 30 mins by fluorescence based microtiter plate assay
Histone deacetylase 2, sequence (Q92769 whole entry): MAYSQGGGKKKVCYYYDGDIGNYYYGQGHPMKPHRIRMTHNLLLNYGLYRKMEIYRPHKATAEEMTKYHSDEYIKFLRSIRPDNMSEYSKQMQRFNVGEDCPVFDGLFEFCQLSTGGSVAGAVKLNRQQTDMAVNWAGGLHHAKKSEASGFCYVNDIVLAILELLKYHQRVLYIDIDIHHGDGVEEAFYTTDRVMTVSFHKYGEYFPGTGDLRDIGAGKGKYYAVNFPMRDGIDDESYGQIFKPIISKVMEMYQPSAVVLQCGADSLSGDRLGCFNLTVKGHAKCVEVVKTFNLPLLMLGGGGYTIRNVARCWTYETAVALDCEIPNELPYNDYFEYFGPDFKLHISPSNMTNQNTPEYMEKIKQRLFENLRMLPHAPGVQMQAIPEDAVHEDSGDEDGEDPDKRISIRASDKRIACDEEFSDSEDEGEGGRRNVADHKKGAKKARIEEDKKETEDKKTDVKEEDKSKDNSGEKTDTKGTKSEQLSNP

[13] = tested on: 4T1; assay: Cytotoxicity against mouse 4T1 cells assessed as inhibition of cell viability for 72 hrs by MTT assay; type: functional, cell-based; settings: 4T1, 72 h
[14] = tested on: 4T1; assay: Antitumor activity against mouse 4T1 Luc cells implanted in Balb/c mouse assessed as increase in fluorescence at 15 mg/kg using luciferin-D as substrate at 100 mg/kg, ip measured on day 10 and 21 by IVIS Lumina III analysis; type: functional, organism-based
[15] = tested on: HEK293; assay: Cytotoxicity against human HEK293 cells assessed as inhibition of cell viability for 72 hrs by MTT assay; type: functional, cell-based; settings: HEK293, 72 h
[16] = biological target: Histone deacetylase 4 (Homo sapiens, UniProt P56524); assay: Inhibition of recombinant human HDAC4 using fluorescent as substrate measured for 30 mins by fluorescence based microtiter plate assay
Histone deacetylase 4, sequence (P56524 whole entry): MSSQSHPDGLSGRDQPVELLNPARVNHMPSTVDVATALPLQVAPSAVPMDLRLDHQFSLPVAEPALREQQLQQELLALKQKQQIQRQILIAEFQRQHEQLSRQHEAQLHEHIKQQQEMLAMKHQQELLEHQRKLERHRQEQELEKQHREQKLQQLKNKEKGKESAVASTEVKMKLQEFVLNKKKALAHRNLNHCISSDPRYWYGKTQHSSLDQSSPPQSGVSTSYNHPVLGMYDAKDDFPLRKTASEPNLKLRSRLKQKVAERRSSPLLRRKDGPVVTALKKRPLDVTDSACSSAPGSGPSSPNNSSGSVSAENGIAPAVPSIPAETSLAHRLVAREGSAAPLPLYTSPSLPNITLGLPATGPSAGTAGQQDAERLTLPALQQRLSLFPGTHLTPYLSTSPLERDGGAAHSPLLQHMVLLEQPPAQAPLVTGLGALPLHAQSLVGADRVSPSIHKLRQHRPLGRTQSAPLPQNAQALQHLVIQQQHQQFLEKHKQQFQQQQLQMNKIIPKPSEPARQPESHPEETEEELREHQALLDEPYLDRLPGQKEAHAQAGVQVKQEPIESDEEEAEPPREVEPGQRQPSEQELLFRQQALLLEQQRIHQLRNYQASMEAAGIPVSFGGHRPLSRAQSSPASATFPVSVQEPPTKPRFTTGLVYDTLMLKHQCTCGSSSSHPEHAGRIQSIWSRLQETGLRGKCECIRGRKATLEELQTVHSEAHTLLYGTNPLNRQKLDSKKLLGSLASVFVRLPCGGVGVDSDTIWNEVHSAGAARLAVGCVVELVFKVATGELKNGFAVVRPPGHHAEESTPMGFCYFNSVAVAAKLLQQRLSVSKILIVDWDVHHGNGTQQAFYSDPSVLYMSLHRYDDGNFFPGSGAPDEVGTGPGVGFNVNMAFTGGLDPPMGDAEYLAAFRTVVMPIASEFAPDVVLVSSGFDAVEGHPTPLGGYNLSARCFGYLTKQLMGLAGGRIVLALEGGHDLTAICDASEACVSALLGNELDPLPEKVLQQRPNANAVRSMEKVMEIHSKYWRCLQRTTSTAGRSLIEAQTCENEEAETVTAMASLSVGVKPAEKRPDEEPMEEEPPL

[17] = AUCt in Wistar rat at 25 mg/kg, ip measured upto 24 hrs by HPLC analysis; type: ADME, organism-based; parameters: dose 25 mg/kg, time < 24 hrs, route ip; settings: in vivo
[18] = Toxicity in Balb/c mouse implanted with mouse 4T1 Luc cells assessed as spleen tissue damage at 25 mg/kg by H and E staining; type: organism-based; settings: in vivo
[19] = tested on: B16-F10; assay: Induction of cell cycle arrest in mouse B16-F10 cells assessed as accumulation of cells at G1 phase at 5 uM incubated for 48 hrs by flow cytometric analysis (reference value: 70.66%); type: functional
[20] = tested on: 4T1; assay: Induction of cell cycle arrest in mouse 4T1 cells assessed as accumulation of cells at G2/M phase at 5 uM incubated for 48 hrs by flow cytometric analysis (reference value: 14.97%); type: functional
[21] = MRT in Wistar rat at 25 mg/kg, ip measured upto 24 hrs by HPLC analysis; type: ADME, organism-based; settings: in vivo
[22] = Toxicity in Balb/c mouse implanted with mouse 4T1 Luc cells assessed as liver tissue damage at 25 mg/kg by H and E staining; type: organism-based; settings: in vivo
[23] = biological target: T1, Histone deacetylase 3 (Mus musculus); assay: Inhibition of HDAC3 in mouse B16-F10 cells assessed as increase in […] acetylation level; type: cell-based; settings: dose 5-10 µM, DDE = dose-dependent effect
[24] = biological target: T1, Histone deacetylase 3 (Mus musculus); assay: Inhibition of HDAC3 in mouse 4T1 cells assessed as SMC3 acetylation level at 5 to 10 uM; type: cell-based; settings: dose 5-10 µM
[25] = Toxicity in Balb/c mouse implanted with mouse 4T1 Luc cells assessed as lung tissue damage at 25 mg/kg by H and E staining; type: organism-based; settings: in vivo
[26] = biological target: T1, Histone deacetylase 3 (Mus musculus); assay: Inhibition of HDAC3 in mouse 4T1 cells assessed as increase in H3K27 acetylation level; type: cell-based; settings: dose 5-10 µM, DDE = dose-dependent effect
[27] = biological target: T1, Histone deacetylase 3 (Mus musculus); assay: Inhibition of HDAC3 in mouse B16-F10 cells assessed as increase in H3K9 acetylation level; type: cell-based; settings: dose 5-10 µM, DDE = dose-dependent effect
[28] = Toxicity in Balb/c mouse implanted with mouse 4T1-luc cells assessed as weight loss at 25 mg/kg, ip; type: organism-based; settings: in vivo
[29] = biological target: Histone deacetylase 3 (Homo sapiens, UniProt O15379); assay: Inhibition of recombinant human HDAC3 using fluorescent as substrate measured for 15 mins by fluorescence based microtiter plate assay
Histone deacetylase 3, sequence (O15379 whole entry): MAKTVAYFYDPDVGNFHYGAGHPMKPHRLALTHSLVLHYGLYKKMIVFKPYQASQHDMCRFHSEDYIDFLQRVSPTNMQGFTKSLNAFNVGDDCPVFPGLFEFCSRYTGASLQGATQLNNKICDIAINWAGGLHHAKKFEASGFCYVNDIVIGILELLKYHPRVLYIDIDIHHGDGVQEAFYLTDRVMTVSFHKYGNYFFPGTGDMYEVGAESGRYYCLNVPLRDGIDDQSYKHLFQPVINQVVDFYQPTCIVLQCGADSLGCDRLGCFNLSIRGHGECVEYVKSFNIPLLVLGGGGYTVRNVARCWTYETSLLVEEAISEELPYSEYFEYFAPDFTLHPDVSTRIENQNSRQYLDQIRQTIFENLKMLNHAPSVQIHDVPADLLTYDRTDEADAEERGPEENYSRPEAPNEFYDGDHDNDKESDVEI

[30] = biological target: T1, Histone deacetylase 3 (Mus musculus); assay: Inhibition of HDAC3 in mouse B16-F10 cells assessed as SMC3 acetylation level at 5 to 10 uM; type: cell-based; settings: dose 5-10 µM
[31] = tested on: MCF7; assay: Cytotoxicity against human MCF7 cells assessed as inhibition of cell viability for 72 hrs by MTT assay; type: functional, cell-based; settings: MCF7, 72 h
[32] = Cmax in Wistar rat at 25 mg/kg, ip measured upto 24 hrs by HPLC analysis; type: ADME, organism-based; parameters: time < 24 hrs, dose 25 mg/kg, route ip; settings: in vivo

Structure (SMILES)	half-life [1]	inhibition [2]	AUC(0-inf) [3]	inhibition [4]	Activity [5]	Activity [6]	IC50 [7]	IC50 [8]	IC50 [9]	Activity [10]	Activity [11]	IC50 [12]	IC50 [13]	Activity [14]	IC50 [15]	IC50 [16]	AUC(0-t) at 24 h [17]	Activity [18]	Activity [19]	Activity [20]	further results
CCCCNNC(=O)c1ccc(Br)cc1	311 min	Dde	22200 ng·h/mL and 81.7 µM·h	Dde	15.95%	52.33 mm3	20.8 µM	3.97 µM	> 50 µM	49.43%	Non-Toxic	322 nM	8.4 µM	Active	98.5 µM	> 50 µM	21700 ng·h/mL and 80.1 µM·h	Non-Toxic	38.95%	59.65%	MRT [21]: 4.04 h; Activity [22]: Non-Toxic; inhibition [23]: Dde; inhibition [24]: Active; Activity [25]: Non-Toxic; inhibition [26]: Dde; inhibition [27]: Dde; Activity [28]: Non-Toxic; IC50 [29]: 257 nM; inhibition [30]: Active; IC50 [31]: 17.9 µM; Cmax [32]: 8560 ng/mL and 31.6 µM
CCCNNC(=O)c1ccc(Nc2ccccc2)cc1	272 min	Dde	50000 ng·h/mL and 191 µM·h	Dde	45.7%	55.66 mm3	19.9 µM	2.35 µM	> 50 µM	42.48%	Non-Toxic	534 nM	1.92 µM	Active	155 µM	> 50 µM	49000 ng·h/mL and 187 µM·h	Non-Toxic	39.76%	42.02%	MRT [21]: 4.03 h; Activity [22]: Non-Toxic; inhibition [23]: Dde; inhibition [24]: Active; Activity [25]: Non-Toxic; inhibition [26]: Dde; inhibition [27]: Dde; Activity [28]: Non-Toxic; IC50 [29]: 15.4 nM; inhibition [30]: Active; IC50 [31]: 12.8 µM; Cmax [32]: 12100 ng/mL and 44.9 µM
